According to ChEMBL document CHEMBL6178017, “Intercepting the Downstream of the Estrogen Receptor Signaling Pathway: Discovery of a Potent and Efficient SRC-3 PROTAC Degrader for Overcoming Endocrine Resistance Breast Cancer” (J Med Chem, 2025):
Activity calls are given as the source filed them. The rule behind the calls is not given here.

test system: MCF7; test: Antiproliferative activity against human MCF7 cells assessed as inhibition of cell growth by CCK8 assay; format: functional, cell-based; conditions: not given

SMILES | IC50
C[C@]12CC[C@@H]3c4ccc(O)cc4C[C@@H](CCCCCCCCC[S+]([O-])CCCC(F)(F)C(F)(F)F)[C@H]3[C@@H]1CC[C@@H]2O (some centres not stated) [FULVESTRANT] | 220 nM
CC/C(=C(\c1ccc(O)cc1)c1ccc(OCCN(C)C)cc1)c1ccccc1 [AFIMOXIFENE] | 380 nM
C/C(=N\Nc1nc2ccccc2n1C)c1ccccn1 | 470 nM

test system: not listed separately; test: Antiproliferative activity against tamoxifen-resistant human LCC2 cells assessed as inhibition of cell growth by CCK8 assay; format: functional, cell-based; conditions: not given

SMILES | IC50
C[C@]12CC[C@@H]3c4ccc(O)cc4C[C@@H](CCCCCCCCC[S+]([O-])CCCC(F)(F)C(F)(F)F)[C@H]3[C@@H]1CC[C@@H]2O (some centres not stated) [FULVESTRANT] | 470 nM
CC/C(=C(\c1ccc(O)cc1)c1ccc(OCCN(C)C)cc1)c1ccccc1 [AFIMOXIFENE] | 26500 nM
C/C(=N\Nc1nc2ccccc2n1C)c1ccccn1 | 600 nM

test system: MCF7; test: Antiproliferative activity against human MCF7 cells harboring ER-alpha D538G mutant assessed as inhibition of cell growth by CCK8 assay; format: functional, cell-based; conditions: not given

SMILES | IC50
C[C@]12CC[C@@H]3c4ccc(O)cc4C[C@@H](CCCCCCCCC[S+]([O-])CCCC(F)(F)C(F)(F)F)[C@H]3[C@@H]1CC[C@@H]2O (some centres not stated) [FULVESTRANT] | 580 nM
CC/C(=C(\c1ccc(O)cc1)c1ccc(OCCN(C)C)cc1)c1ccccc1 [AFIMOXIFENE] | 8570 nM
C/C(=N\Nc1nc2ccccc2n1C)c1ccccn1 | 770 nM

test system: MCF7; test: Antiproliferative activity against human MCF7 cells harboring ER-alpha Y537S mutant assessed as inhibition of cell growth by CCK8 assay; format: functional, cell-based; conditions: not given

SMILES | IC50
C[C@]12CC[C@@H]3c4ccc(O)cc4C[C@@H](CCCCCCCCC[S+]([O-])CCCC(F)(F)C(F)(F)F)[C@H]3[C@@H]1CC[C@@H]2O (some centres not stated) [FULVESTRANT] | 6150 nM
CC/C(=C(\c1ccc(O)cc1)c1ccc(OCCN(C)C)cc1)c1ccccc1 [AFIMOXIFENE] | 18800 nM
C/C(=N\Nc1nc2ccccc2n1C)c1ccccn1 | 4 nM

biological target: T1, Protein cereblon/Nuclear receptor coactivator 3 (Homo sapiens, UniProt Q9Y6Q9+Q96SW2); test: PROTAC activity at CRBN/SRC-3 in human MCF7 cells assessed as maximal induction of SRC-3 degradation at 1 uM incubated for 36 hrs by immunoblot analysis; format: cell-based; conditions: not given
T1 sequence (Q96SW2 whole entry partner): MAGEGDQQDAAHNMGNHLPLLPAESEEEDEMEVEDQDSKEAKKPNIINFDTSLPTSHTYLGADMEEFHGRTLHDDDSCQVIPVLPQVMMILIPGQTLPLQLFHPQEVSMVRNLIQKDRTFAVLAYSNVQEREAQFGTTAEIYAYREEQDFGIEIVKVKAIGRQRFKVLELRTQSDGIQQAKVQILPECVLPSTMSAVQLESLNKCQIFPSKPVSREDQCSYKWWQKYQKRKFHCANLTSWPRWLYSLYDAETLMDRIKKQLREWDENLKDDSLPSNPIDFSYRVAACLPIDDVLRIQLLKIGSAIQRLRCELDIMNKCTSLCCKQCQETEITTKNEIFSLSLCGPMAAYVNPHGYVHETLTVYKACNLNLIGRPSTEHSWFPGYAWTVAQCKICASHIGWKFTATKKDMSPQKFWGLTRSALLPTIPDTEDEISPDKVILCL
T1 sequence (Q9Y6Q9 2-1424 limits assumed): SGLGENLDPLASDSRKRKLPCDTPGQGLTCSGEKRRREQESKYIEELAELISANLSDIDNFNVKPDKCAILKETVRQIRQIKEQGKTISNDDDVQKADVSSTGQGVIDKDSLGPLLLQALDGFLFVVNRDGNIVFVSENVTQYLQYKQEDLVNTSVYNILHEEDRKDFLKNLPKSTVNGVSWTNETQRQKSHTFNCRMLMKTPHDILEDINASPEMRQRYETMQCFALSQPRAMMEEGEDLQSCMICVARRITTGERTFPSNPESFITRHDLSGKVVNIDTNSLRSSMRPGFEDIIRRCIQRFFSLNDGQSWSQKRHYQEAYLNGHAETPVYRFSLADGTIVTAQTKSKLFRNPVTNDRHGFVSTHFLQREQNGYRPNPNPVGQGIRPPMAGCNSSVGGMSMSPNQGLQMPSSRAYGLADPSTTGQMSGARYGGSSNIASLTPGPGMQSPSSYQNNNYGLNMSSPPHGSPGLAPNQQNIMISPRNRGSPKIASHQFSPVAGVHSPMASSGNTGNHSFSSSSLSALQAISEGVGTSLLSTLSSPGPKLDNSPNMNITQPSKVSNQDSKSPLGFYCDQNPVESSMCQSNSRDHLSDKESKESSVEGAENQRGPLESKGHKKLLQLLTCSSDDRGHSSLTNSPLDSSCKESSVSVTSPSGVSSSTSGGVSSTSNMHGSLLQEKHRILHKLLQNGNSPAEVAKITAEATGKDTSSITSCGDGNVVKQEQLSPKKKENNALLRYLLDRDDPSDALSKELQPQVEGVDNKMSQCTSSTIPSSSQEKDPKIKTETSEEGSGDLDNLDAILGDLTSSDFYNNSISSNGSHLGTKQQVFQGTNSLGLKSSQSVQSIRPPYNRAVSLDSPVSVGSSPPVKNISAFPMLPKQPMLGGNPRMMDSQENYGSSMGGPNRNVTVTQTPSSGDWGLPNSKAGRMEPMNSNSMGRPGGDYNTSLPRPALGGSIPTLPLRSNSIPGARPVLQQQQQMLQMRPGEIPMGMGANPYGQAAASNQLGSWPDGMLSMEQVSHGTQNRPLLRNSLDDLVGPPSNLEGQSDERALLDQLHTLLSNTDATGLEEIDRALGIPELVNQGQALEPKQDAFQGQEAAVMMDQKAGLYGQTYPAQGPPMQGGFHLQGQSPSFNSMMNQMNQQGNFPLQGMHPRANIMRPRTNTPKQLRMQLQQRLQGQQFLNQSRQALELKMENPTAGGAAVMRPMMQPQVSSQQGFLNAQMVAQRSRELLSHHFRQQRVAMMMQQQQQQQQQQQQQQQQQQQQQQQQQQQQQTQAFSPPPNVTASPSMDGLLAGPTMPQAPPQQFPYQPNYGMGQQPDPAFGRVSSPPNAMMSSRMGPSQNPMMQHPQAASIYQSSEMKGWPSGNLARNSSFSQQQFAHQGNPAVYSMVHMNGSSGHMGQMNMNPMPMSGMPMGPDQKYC

SMILES | Activity
C/C(=N\Nc1nc2ccccc2n1C1CN(C2CCN(c3cccc4c3C(=O)N(C3CCC(=O)N(C)C3=O)C4=O)CC2)C1)c1ccccn1 (configuration not stated) | inactive

biological target: T1, Protein cereblon/Nuclear receptor coactivator 3; test: PROTAC activity at CRBN/SRC-3 in tamoxifen-resistant human LCC2 cells assessed as maximal induction of SRC-3 degradation at 1 uM incubated for 36 hrs by immunoblot analysis; format: cell-based; conditions: Tamoxifen-resistant LCC2 cell

SMILES | Activity
C/C(=N\Nc1nc2ccccc2n1C1CN(C2CCN(c3cccc4c3C(=O)N(C3CCC(=O)N(C)C3=O)C4=O)CC2)C1)c1ccccn1 (configuration not stated) | inactive

test system: not listed separately; test: Induction of apoptosis in tamoxifen-resistant human LCC2 cells assessed as viable cells incubated for 48 hrs by AnnexinV-FITC/PI staining based flow cytometry (reference value: 88.09%); format: functional, Tamoxifen-resistant LCC2 cell; conditions: not given

SMILES | Activity
C[C@]12CC[C@@H]3c4ccc(O)cc4C[C@@H](CCCCCCCCC[S+]([O-])CCCC(F)(F)C(F)(F)F)[C@H]3[C@@H]1CC[C@@H]2O (some centres not stated) [FULVESTRANT] | 69.81%

test system: not listed separately; test: Induction of apoptosis in tamoxifen-resistant human LCC2 cells assessed as early apoptotic cells incubated for 48 hrs by AnnexinV-FITC/PI staining based flow cytometry (reference value: 5.92%); format: functional, Tamoxifen-resistant LCC2 cell; conditions: not given

SMILES | Activity
C[C@]12CC[C@@H]3c4ccc(O)cc4C[C@@H](CCCCCCCCC[S+]([O-])CCCC(F)(F)C(F)(F)F)[C@H]3[C@@H]1CC[C@@H]2O (some centres not stated) [FULVESTRANT] | 15.07%

test system: not listed separately; test: Induction of apoptosis in tamoxifen-resistant human LCC2 cells assessed as late apoptotic cells incubated for 48 hrs by AnnexinV-FITC/PI staining based flow cytometry (reference value: 4.83%); format: functional, Tamoxifen-resistant LCC2 cell; conditions: not given

SMILES | Activity
C[C@]12CC[C@@H]3c4ccc(O)cc4C[C@@H](CCCCCCCCC[S+]([O-])CCCC(F)(F)C(F)(F)F)[C@H]3[C@@H]1CC[C@@H]2O (some centres not stated) [FULVESTRANT] | 12.06%

test system: not listed separately; test: Induction of apoptosis in tamoxifen-resistant human LCC2 cells assessed as necrotic cells incubated for 48 hrs by AnnexinV-FITC/PI staining based flow cytometry (reference value: 1.16%); format: functional, Tamoxifen-resistant LCC2 cell; conditions: not given

SMILES | Activity
C[C@]12CC[C@@H]3c4ccc(O)cc4C[C@@H](CCCCCCCCC[S+]([O-])CCCC(F)(F)C(F)(F)F)[C@H]3[C@@H]1CC[C@@H]2O (some centres not stated) [FULVESTRANT] | 3.06%

test system: not listed separately; test: Half life of the compound in human plasma by LC-MS/MS analysis; format: ADME, cell-free; conditions: not given

SMILES | half-life
CCN(CC)CCOC(=O)c1ccc(N)cc1 [PROCAINE] | 0.0303 h
C/C(=N\Nc1nc2ccccc2n1C)c1ccccn1 | 2.17 h

test system: not listed separately; test: Metabolic stability of the compound in human plasma measured after 2 hrs by LC-MS/MS analysis; format: ADME, cell-free; conditions: read-out: Stability

SMILES | remaining at 2 h
C/C(=N\Nc1nc2ccccc2n1C)c1ccccn1 | > 50%

test system: Tamoxifen-resistant LCC2 cell; test: Antitumor activity against tamoxifen-resistant human LCC2 cells xenografted in Balb/c mouse assessed as inhibition of tumor growth at 3 uM/Kg, ip administered once every 2 days for 23 days; format: functional, organism-based; conditions: time 23.0 day

SMILES | Activity
CC/C(=C(\c1ccccc1)c1ccc(OCCN(C)C)cc1)c1ccccc1 | inactive

test system: Mus musculus; test: In vivo PROTAC activity at CRBN/SRC-3 in Balb/c mouse xenografted with tamoxifen-resistant human LCC2 cells assessed as induction of SRC-3 degradation in tumor tissues at 5 uM/Kg, ip administered once every 2 days for 23 days and measured on day 25 by western blot analysis; format: functional, organism-based; conditions: time 25.0 day

SMILES | Activity
C[C@]12CC[C@@H]3c4ccc(O)cc4C[C@@H](CCCCCCCCC[S+]([O-])CCCC(F)(F)C(F)(F)F)[C@H]3[C@@H]1CC[C@@H]2O (some centres not stated) [FULVESTRANT] | inactive

test system: MCF7; test: Induction of SRC-3 degradation in human MCF7 cells at 1 uM incubated for 24 hrs by immunoblot analysis relative to control; format: cell-based; conditions: not given

SMILES | Activity
C[C@]12CC[C@@H]3c4ccc(O)cc4C[C@@H](CCCCCCCCC[S+]([O-])CCCC(F)(F)C(F)(F)F)[C@H]3[C@@H]1CC[C@@H]2O (some centres not stated) [FULVESTRANT] | inactive
C/C(=N\Nc1nc2ccccc2n1C)c1ccccn1 | 53%

test system: MCF7; test: Induction of ER-alpha degradation in human MCF7 cells at 1 uM incubated for 24 hrs by immunoblot analysis relative to control; format: cell-based; conditions: not given

SMILES | Activity
C[C@]12CC[C@@H]3c4ccc(O)cc4C[C@@H](CCCCCCCCC[S+]([O-])CCCC(F)(F)C(F)(F)F)[C@H]3[C@@H]1CC[C@@H]2O (some centres not stated) [FULVESTRANT] | 86%
C/C(=N\Nc1nc2ccccc2n1C)c1ccccn1 | 86%
